In patent US12053777B2, “Devices and methods for detecting cancerous cells” (Academia Sinica, priority 2019, dated 2024):

B1: EpCAM: epithelial cell adhesion molecule (EpCAM)-coated beads, comparison capture reagent (protein, UniProt P16422 24-314, looked up)
Epithelial cell adhesion …: QEECVCENYKLAVNCFVNNNRQCQCTSVGAQNTVICSKLAAKCLVMKAEMNGSKLGRRAKPEGALQNNDGLYDPDCDESGLFKAKQCNGTSMCWCVNTAGVRRTDKDTEITCSERVRTYWIIIELKHKAREKPYDSKSLRTALQKEITTRYQLDPKFITSILYENNVITIDLVQNSSQKTQNDVDIADVAYYFEKDVKGESLFHSKKMDLTVNGEQLDLDPGQTLIYYVDEKAPEFSMQGLKAGVIAVIVVVVIAVVAGIVVLVISRKKRMAKYEKAEIKEMGEMHRELNA
modifications: coated on beads
notes: epithelial cell adhesion molecule (EpCAM)-coated beads, comparison capture reagent

Columns and labels:
Assay in all cases: Capture of cells by sulfated octasaccharide-coated magnetic beads on microfluidic chip
Assay type in all cases: cell-based
[1] = tested on: HepG2
Protocol: (§1) Preparation of magnetic beads pre-coated with a sulfated octasaccharide. The surface of magnetic beads was respectively coated with the sulfated octasaccharides of the present invention (e.g., HS1, HS12 and etc) with three different concentrations (1 μM, 10 μM and 100 μM). Briefly, sulfated octasaccharides were first incubated with Dynabeads® MyOne™ Streptavidin T1 (˜7-10×10^9 beads/mL, Ø=1 μm, Invitrogen Co., USA) in a volume ratio of 1:10 for 30 min. Then beads were collected by using a magnet for 5 min, followed by discarding the supernatant and washing thrice by using 1-mL deionized (DI) water. Finally, the coated beads were suspended in the equal volume of DI water as the initial volume of Dynabeads® taken from the vial.
(§2) The microfluidic chip constructed above was employed to capture cancerous cells. Briefly, 2×10^5 cells from various types of cancerous cell lines were suspended in 100 μL×phosphate buffered saline (PBS) buffer and loaded into six capture chambers, respectively. 10 μL of different concentrations of sulfated octasaccharides coated beads were manually pipetted in the capture chambers, and gently mixed with cells by the micropumps for 15 min. After incubation, the cells were identified and bound by the magnetic beads pre-coated with the sulfated octasaccharides of formula (I) of the present invention. Then, these captured cells were collected with a magnetic force and washed by 1×PBS buffer. After isolating, the beads and captured cells were suspended in 100 μL 1×PBS buffer, and finally loaded into a hemocytometer to calculate the capture rates.
(§3) In a pre-test, total of 8 cancer cell lines (i.e., MMNK-1, SNU-478, HuCCT-1, Huh-28, KKU-100, HepG2, BxPC3, and HCT8) were respectively loaded into the microsystem and incubated with the magnetic beads, then the captured cells were collected with a magnetic force, and finally loaded into a hemocytometer to calculate the capture rates.

[2] = tested on: HCT8
Protocol: as §1, §2, §3

[3] = tested on: KKU-100; settings: KKU-100 cells
Protocol: as §1, §2, §3

[4] = tested on: MMNK-1; settings: for capture rate: MMNK-1 cells; for capture rate, in words: normal cells (MINK-1)
Protocol: as §1, §2, §3

[5] = tested on: HuCCT-1; settings: for capture rate: HuCCT-1 cells; for capture rate, in words: metastasized CCA cells (HuCCT-1)
Protocol: as §1, §2, §3

[6] = tested on: SNU-478; settings: SNU-478 cells
Protocol: as §1, §2, §3

[7] = tested on: BxPC3
Protocol: as §1, §2, §3

[8] = tested on: Huh-28; settings: for specificity of capture among the eight cell lines: Huh28, a cholangiocarcinoma (CCA) cell line, versus the other cell lines; for capture rate: Huh-28 cells
Protocol: as §1, §2, §3
FIG. 2 illustrates that the cancer cells, Huh-28, could be successfully captured by magnetic beads pre-coated with HS 1 of 100 μM. Huh-28 cells before being captured by magnetic beads are depicted in FIG. 2, panel a. After well mixing Huh-28 cells and beads for 30 mins, cells were surrounded by beads (FIG. 2, panel b). The supernatant collection through an isolation process by magnetic force after 30-min incubation is depicted in FIG. 2, panel c.

[9] = tested on: Huh-28; settings: Huh-28 cells; EpCAM-coated beads

| Molecule | capture rate ([1]; beads coated with HS at 1 μM) [%] | capture rate ([1]; beads coated with HS at 10 μM) [%] | capture rate ([1]; beads coated with HS at 100 μM) [%] | capture rate ([2]; beads coated with HS at 1 μM) [%] | capture rate ([2]; beads coated with HS at 10 μM) [%] | capture rate ([2]; beads coated with HS at 100 μM) [%] | capture rate ([3]; beads coated with HS at 1 μM) [%] | capture rate ([3]; beads coated with HS at 10 μM) [%] | capture rate ([3]; beads coated with HS at 100 μM) [%] | capture rate ([4]; beads coated with HS at 1 μM) [%] | capture rate ([4]; beads coated with HS at 10 μM) [%] | capture rate ([4]; beads coated with HS at 100 μM) [%] | capture rate, in words [4] | capture rate ([5]; beads coated with HS at 1 μM) [%] | capture rate ([5]; beads coated with HS at 10 μM) [%] | capture rate ([5]; beads coated with HS at 100 μM) [%] | capture rate, in words [5] | capture rate ([6]; beads coated with HS at 1 μM) [%] | capture rate ([6]; beads coated with HS at 10 μM) [%] | capture rate ([6]; beads coated with HS at 100 μM) [%] | other results |
| --- | --- | --- | --- | --- | --- | --- | --- | --- | --- | --- | --- | --- | --- | --- | --- | --- | --- | --- | --- | --- | --- |
| CC(=O)NC1C(O)[C@H](O)C(CO)O[C@@H]1O[C@@H]1C(C(=O)[O-])O[C@@H](O[C@@H]2C(CO)O[C@H](O[C@@H]3C(C(=O)[O-])O[C@@H](O[C@@H]4C(CO)O[C@H](O[C@@H]5C(C(=O)[O-])O[C@@H](O[C@@H]6C(CO)O[C@H](O[C@@H]7C(C(=O)[O-])O[C@@H](OCCCCCN)C(O)C7O)C(NC(C)=O)C6O)C(O)C5O)C(NC(C)=O)C4O)C(O)C3O)C(NC(C)=O)C2O)C(O)C1O.[Na+].[Na+].[Na+].[Na+] (stereo partly drawn) [HS 1, 5-Aminopentyl (2-acetamido-2-deoxy-α-D-glucopyranosyl)-(1→4)-α-L-idopyranosiduronyl-(1→4)-(2-acetamido-2-deoxy-α-D-glucopyranosyl)-(1→4)-α-L-idopyranosiduronyl-(1→4)-(2-acetamido-2-deoxy-α-D-glucopyranosyl)-(1→4)-α-L-idopyranosiduronyl-(1→4)-(2-acetamido-2-deoxy-α-D-glucopyranosyl)-(1→4)-α-L-idopyranosiduronate] | 12 ± 0 | 16 ± 6 | 10 ± 4 | 18 ± 5 | 14 ± 4 | 13 ± 3 | 40 ± 10 | 46 ± 1 | 51 ± 2 | 58 ± 11 | 52 ± 6 | 34 ± 5 | relatively low | 4 ± 1 | 6 ± 2 | 4 ± 1 | relatively low | 23 ± 13 | 20 ± 8 | 22 ± 7 | capture rate ([7]; beads coated with HS at 1 μM): 15 ± 5%; capture rate ([7]; beads coated with HS at 10 μM): 18 ± 4%; capture rate ([7]; beads coated with HS at 100 μM): 13 ± 7%; specificity of capture among the eight cell lines [8]: highly specific to Huh28; capture rate ([8]; beads coated with HS at 1 μM): 65 ± 20%; capture rate ([8]; beads coated with HS at 10 μM): 70 ± 10%; capture rate ([8]; beads coated with HS at 100 μM): 78 ± 14%; capture rate ([8]; beads coated with HS at 100 μM, listed as HS1): 78±14%; capture of Huh-28 cells seen in photographs (FIG. 2) ([8]; beads coated at 100 μM, 30-min incubation, few cells left in supernatant): Almost all of the Huh-28 cells were captured and isolated |
| NCCCCCO[C@@H]1O[C@H](C(=O)O)[C@@H](O[C@H]2O[C@H](COS(=O)(=O)O)[C@@H](O[C@@H]3O[C@@H](C(=O)O)[C@@H](O[C@H]4O[C@H](COS(=O)(=O)O)[C@@H](O[C@@H]5O[C@H](C(=O)O)[C@@H](O[C@H]6O[C@H](COS(=O)(=O)O)[C@@H](O[C@@H]7O[C@@H](C(=O)O)[C@@H](O[C@H]8O[C@H](COS(=O)(=O)O)[C@@H](O)[C@H](O)[C@H]8NS(=O)(=O)O)[C@H](O)[C@H]7OS(=O)(=O)O)[C@H](O)[C@H]6NS(=O)(=O)O)[C@H](O)[C@H]5OS(=O)(=O)O)[C@H](O)[C@H]4NS(=O)(=O)O)[C@H](O)[C@H]3OS(=O)(=O)O)[C@H](O)[C@H]2NS(=O)(=O)O)[C@H](O)[C@H]1OS(=O)(=O)O [HS 12] | 14 ± 1 | 11 ± 4 | 9 ± 6 | 16 ± 3 | 13 ± 0 | 9 ± 2 | 42 ± 3 | 44 ± 2 | 41 ± 11 | 55 ± 7 | 47 ± 20 | 16 ± 8 | relatively low | 5 ± 1 | 5 ± 2 | 4 ± 2 | relatively low | 20 ± 5 | 17 ± 7 | 16 ± 8 | capture rate ([7]; beads coated with HS at 1 μM): 16 ± 6%; capture rate ([7]; beads coated with HS at 10 μM): 11 ± 3%; capture rate ([7]; beads coated with HS at 100 μM): 7 ± 3%; specificity of capture among the eight cell lines [8]: highly specific to Huh28; capture rate ([8]; beads coated with HS at 1 μM): 66 ± 6%; capture rate ([8]; beads coated with HS at 10 μM): 67 ± 3%; capture rate ([8]; beads coated with HS at 100 μM): 73±4% |
| B1 |  |  |  |  |  |  |  |  |  |  |  |  |  |  |  |  |  |  |  |  | capture rate [9]: 58±19%; capture rate ([1]; EpCAM-coated beads): 44 ± 7%; capture rate ([2]; EpCAM-coated beads): 22 ± 3%; capture rate ([3]; EpCAM-coated beads): 51 ± 5%; capture rate ([4]; EpCAM-coated beads): 58 ± 8%; capture rate ([5]; EpCAM-coated beads): 67 ± 11%; capture rate ([6]; EpCAM-coated beads): 74 ± 6%; capture rate ([7]; EpCAM-coated beads): 45 ± 6% |
